Literature values in patent US7632828B2, “Gram-positive carbapenem antibacterials and processes for their preparation” (FOB Synthesis, Inc., priority 2004, dated 2009).
Values belong to the compound of their own block, whether it stands above or below them.

Experiments:
[1] = test subjects
[2] = target: T1, mammalian β-lactamase renal dehydropeptidase-I (DHP-I) (Homo sapiens, UniProt P16444)
T1 sequence (P16444 17-385): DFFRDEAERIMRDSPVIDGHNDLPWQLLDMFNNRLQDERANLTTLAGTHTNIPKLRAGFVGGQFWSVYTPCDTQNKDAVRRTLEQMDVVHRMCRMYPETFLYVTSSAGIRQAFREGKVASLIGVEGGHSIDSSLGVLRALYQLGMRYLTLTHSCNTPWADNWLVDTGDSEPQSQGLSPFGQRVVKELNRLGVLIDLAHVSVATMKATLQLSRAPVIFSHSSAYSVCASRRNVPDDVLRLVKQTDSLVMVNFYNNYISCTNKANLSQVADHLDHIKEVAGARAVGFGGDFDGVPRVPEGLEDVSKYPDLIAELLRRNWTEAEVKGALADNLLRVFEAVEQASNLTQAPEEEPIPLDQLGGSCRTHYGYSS

[3] = system: Pseudomonas spp.
[4] = due to its lactam nucleus and amino acid configuration
[5] = target: T2, kidney dehydropeptidase (Homo sapiens, UniProt P16444)
T2 sequence (P16444 17-385): T1 sequence (P16444 17-385)

[6] = system: wide bacterial spectrum
[7] = system: Gram-negative bacteria

urinary tract recovery [1]: poor urinary tract recovery
stability to renal dehydropeptidase-I (DHP-I) [2]: instability
Compound: C[C@@H](O)[C@H]1C(=O)N2C(C(=O)O)=C(SCCN=CN)C[C@H]12 [imipenem, N-formimidoyl thienamycin]

chemical stability [4]: chemically unstable
Compound: C[C@@H](O)[C@H]1C(=O)N2C(C(=O)O)=C(SCCN)C[C@H]12 [thienamycin]
activity against Pseudomonas spp. [3]: active against Pseudomonas spp.

Compound: Biapenem
stability against hydrolysis by kidney dehydropeptidase [5]: stability against hydrolysis by kidney dehydropeptidase
potency across bacterial spectrum [6]: exhibits potency across a wide bacterial spectrum

Compound: meropenem
activity against Gram-negative bacteria [7]: active against a large number of Gram-negative bacteria
